Assay results as given in patent US6518243B1, “Desleucyl glycopeptide antibiotics and methods of making same” (Trustees of Princeton University, priority 1999, dated 2003).

Assays:
Assay in all cases: Zone of inhibition screen, 96 well agar array format
Type in all cases: cell-based
Parameters in all cases: scale not given here
E. faecalis (CL 4877) = tested on: E. faecalis (CL 4877)
Method in brief: (§1)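 Antibacterial testing on a 96-well agar array; each compound screened separately.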

S. aureus (ATCC 29213) = tested on: S. aureus (ATCC 29213)
Method in brief: as §1

[1] = tested on: S. epidermidis (ATCC 12228)
Method in brief: as §1

[2] = zone of inhibition relative to 1 mg/ml stock solution of p-chlorobiphenylvancomycin
[3] = zone of inhibition relative to 1 mg/ml p-chlorobiphenylvancomycin

Row | Structure (SMILES) | zone score, E. faecalis CL 4877 (E. faecalis (CL 4877); [2]) | zone score, S. aureus ATCC 29213 (S. aureus (ATCC 29213); [2]) | zone score, S. epidermidis ATCC 12228 [1, 2] | zone score, E. faecalis CL 4877 (E. faecalis (CL 4877); [3]) | zone score, S. aureus ATCC 29213 (S. aureus (ATCC 29213); [3]) | zone score, S. epidermidis ATCC 12228 [1, 3]
1 | CC1OC(OC2C(Oc3c4cc5cc3Oc3ccc(cc3Cl)C(O)C3NC(=O)C(NC(=O)C5NC(=O)C(CC(N)=O)NC(=O)C(NC(=O)CCC(N)=O)C(O)c5ccc(c(Cl)c5)O4)c4ccc(O)c(c4)-c4c(O)cc(O)cc4C(C(=O)O)NC3=O)OC(CO)C(O)C2O)CC(C)(NCc2ccc(-c3ccc(Cl)cc3)cc2)C1O (centres unmarked) [Compound 202] | 2 | 2 | 2 |  |  | 
2 | CC1OC(OC2C(Oc3c4cc5cc3Oc3ccc(cc3Cl)C(O)C3NC(=O)C(NC(=O)C5NC(=O)C(CC(N)=O)NC(=O)C(NC(=O)c5ccccc5SCCS(=O)(=O)c5ccc(Cl)cc5)C(O)c5ccc(c(Cl)c5)O4)c4ccc(O)c(c4)-c4c(O)cc(O)cc4C(C(=O)O)NC3=O)OC(CO)C(O)C2O)CC(C)(NCc2ccc(-c3ccc(Cl)cc3)cc2)C1O (centres unmarked) [Compound 301] |  |  |  | 2 | 2 | 2
3 | CC1OC(OC2C(Oc3c4cc5cc3Oc3ccc(cc3Cl)C(O)C3NC(=O)C(NC(=O)C5NC(=O)C(CC(N)=O)NC(=O)C(NC(=O)CCO)C(O)c5ccc(c(Cl)c5)O4)c4ccc(O)c(c4)-c4c(O)cc(O)cc4C(C(=O)O)NC3=O)OC(CO)C(O)C2O)CC(C)(NCc2ccc(-c3ccc(Cl)cc3)cc2)C1O (centres unmarked) [Compound 106] | 2 | 2 | 2 |  |  | 
4 | CC(=O)C(=O)NC1C(=O)NC(CC(N)=O)C(=O)NC2C(=O)NC3C(=O)NC(C(=O)NC(C(=O)O)c4cc(O)cc(O)c4-c4cc3ccc4O)C(O)c3ccc(c(Cl)c3)Oc3cc2cc(c3OC2OC(CO)C(O)C(O)C2OC2CC(C)(NCc3ccc(-c4ccc(Cl)cc4)cc3)C(O)C(C)O2)Oc2ccc(cc2Cl)C1O (centres unmarked) [Compound 314] |  |  |  | 2 | 2 | 2
5 | CC1OC(OC2C(Oc3c4cc5cc3Oc3ccc(cc3Cl)C(O)C3NC(=O)C(NC(=O)C5NC(=O)C(CC(N)=O)NC(=O)C(NC(=O)C5CC(O)CN5)C(O)c5ccc(c(Cl)c5)O4)c4ccc(O)c(c4)-c4c(O)cc(O)cc4C(C(=O)O)NC3=O)OC(CO)C(O)C2O)CC(C)(NCc2ccc(-c3ccc(Cl)cc3)cc2)C1O (centres unmarked) [Compound 54] | 2 | 2 | 2 |  |  | 
6 | CC(=O)NCC(=O)NCC(=O)NC1C(=O)NC(CC(N)=O)C(=O)NC2C(=O)NC3C(=O)NC(C(=O)NC(C(=O)O)c4cc(O)cc(O)c4-c4cc3ccc4O)C(O)c3ccc(c(Cl)c3)Oc3cc2cc(c3OC2OC(CO)C(O)C(O)C2OC2CC(C)(NCc3ccc(-c4ccc(Cl)cc4)cc3)C(O)C(C)O2)Oc2ccc(cc2Cl)C1O (centres unmarked) [Compound 120] | 2 | 2 | 2 |  |  | 
7 | CC1OC(OC2C(Oc3c4cc5cc3Oc3ccc(cc3Cl)C(O)C3NC(=O)C(NC(=O)C5NC(=O)C(CC(N)=O)NC(=O)C(NC(=O)c5ccc(F)cc5)C(O)c5ccc(c(Cl)c5)O4)c4ccc(O)c(c4)-c4c(O)cc(O)cc4C(C(=O)O)NC3=O)OC(CO)C(O)C2O)CC(C)(NCc2ccc(-c3ccc(Cl)cc3)cc2)C1O (centres unmarked) [Compound 270] |  |  |  | 2 | 2 | 2
8 | CC1OC(OC2C(Oc3c4cc5cc3Oc3ccc(cc3Cl)C(O)C3NC(=O)C(NC(=O)C5NC(=O)C(CC(N)=O)NC(=O)C(NC(=O)Cc5ccc(Cl)cc5Cl)C(O)c5ccc(c(Cl)c5)O4)c4ccc(O)c(c4)-c4c(O)cc(O)cc4C(C(=O)O)NC3=O)OC(CO)C(O)C2O)CC(C)(NCc2ccc(-c3ccc(Cl)cc3)cc2)C1O (centres unmarked) [Compound 234] |  |  |  | 2 | 2 | 2
9 | CC1OC(OC2C(Oc3c4cc5cc3Oc3ccc(cc3Cl)C(O)C3NC(=O)C(NC(=O)C5NC(=O)C(CC(N)=O)NC(=O)C(NC(=O)CC(N)C(N)=O)C(O)c5ccc(c(Cl)c5)O4)c4ccc(O)c(c4)-c4c(O)cc(O)cc4C(C(=O)O)NC3=O)OC(CO)C(O)C2O)CC(C)(NCc2ccc(-c3ccc(Cl)cc3)cc2)C1O (centres unmarked) [Compound 74] |  | 2 | 2 |  |  | 
10 | CC(=O)OC(CC(=O)NC1C(=O)NC(CC(N)=O)C(=O)NC2C(=O)NC3C(=O)NC(C(=O)NC(C(=O)O)c4cc(O)cc(O)c4-c4cc3ccc4O)C(O)c3ccc(c(Cl)c3)Oc3cc2cc(c3OC2OC(CO)C(O)C(O)C2OC2CC(C)(NCc3ccc(-c4ccc(Cl)cc4)cc3)C(O)C(C)O2)Oc2ccc(cc2Cl)C1O)C[N+](C)(C)C (mixture of isomers) [Compound 118] |  | 2 | 2 |  |  | 
11 | CC1OC(OC2C(Oc3c4cc5cc3Oc3ccc(cc3Cl)C(O)C3NC(=O)C(NC(=O)C5NC(=O)C(CC(N)=O)NC(=O)C(NC(=O)C=NNC(N)=O)C(O)c5ccc(c(Cl)c5)O4)c4ccc(O)c(c4)-c4c(O)cc(O)cc4C(C(=O)O)NC3=O)OC(CO)C(O)C2O)CC(C)(NCc2ccc(-c3ccc(Cl)cc3)cc2)C1O (centres unmarked) [Compound 289] |  |  |  |  | 2 | 2
12 | CC1OC(OC2C(Oc3c4cc5cc3Oc3ccc(cc3Cl)C(O)C3NC(=O)C(NC(=O)C5NC(=O)C(CC(N)=O)NC(=O)C(NC(=O)c5ccc(O)cc5)C(O)c5ccc(c(Cl)c5)O4)c4ccc(O)c(c4)-c4c(O)cc(O)cc4C(C(=O)O)NC3=O)OC(CO)C(O)C2O)CC(C)(NCc2ccc(-c3ccc(Cl)cc3)cc2)C1O (centres unmarked) [Compound 271] |  |  |  |  | 2 | 2
13 | CC1OC(OC2C(Oc3c4cc5cc3Oc3ccc(cc3Cl)C(O)C3NC(=O)C(NC(=O)C5NC(=O)C(CC(N)=O)NC(=O)C(NC(=O)C=Cc5ccco5)C(O)c5ccc(c(Cl)c5)O4)c4ccc(O)c(c4)-c4c(O)cc(O)cc4C(C(=O)O)NC3=O)OC(CO)C(O)C2O)CC(C)(NCc2ccc(-c3ccc(Cl)cc3)cc2)C1O (centres unmarked) [Compound 244] |  |  |  |  | 2 | 2
14 | CCCCCCCCCCCCCC(=O)NCC(=O)N[C@H]1C(=O)N[C@@H](CC(N)=O)C(=O)N[C@H]2C(=O)N[C@H]3C(=O)N[C@H](C(=O)N[C@@H](C(=O)O)c4cc(O)cc(O)c4-c4cc3ccc4O)[C@H](O)c3ccc(c(Cl)c3)Oc3cc2cc(c3O[C@@H]2O[C@H](CO)[C@@H](O)[C@H](O)[C@H]2O[C@@H]2C[C@@](C)(NCc3ccc(-c4ccc(Cl)cc4)cc3)[C@@H](O)[C@@H](C)O2)Oc2ccc(cc2Cl)[C@H]1O [Compound 22] |  | 2 | 2 |  |  | 
15 | CC1OC(OC2C(Oc3c4cc5cc3Oc3ccc(cc3Cl)C(O)C3NC(=O)C(NC(=O)C5NC(=O)C(CC(N)=O)NC(=O)C(NC(=O)c5cc(=O)[nH]c(=O)[nH]5)C(O)c5ccc(c(Cl)c5)O4)c4ccc(O)c(c4)-c4c(O)cc(O)cc4C(C(=O)O)NC3=O)OC(CO)C(O)C2O)CC(C)(NCc2ccc(-c3ccc(Cl)cc3)cc2)C1O (centres unmarked) [Compound 198] |  | 2 | 2 |  |  | 
16 | C=CCOC(=O)NCCC(N)C(=O)NC1C(=O)NC(CC(N)=O)C(=O)NC2C(=O)NC3C(=O)NC(C(=O)NC(C(=O)O)c4cc(O)cc(O)c4-c4cc3ccc4O)C(O)c3ccc(c(Cl)c3)Oc3cc2cc(c3OC2OC(CO)C(O)C(O)C2OC2CC(C)(NCc3ccc(-c4ccc(Cl)cc4)cc3)C(O)C(C)O2)Oc2ccc(cc2Cl)C1O (centres unmarked) [Compound 93] |  | 2 | 2 |  |  | 
17 | CC1OC(OC2C(Oc3c4cc5cc3Oc3ccc(cc3Cl)C(O)C3NC(=O)C(NC(=O)C5NC(=O)C(CC(N)=O)NC(=O)C(NC(=O)C(N)CCCCNC(N)=O)C(O)c5ccc(c(Cl)c5)O4)c4ccc(O)c(c4)-c4c(O)cc(O)cc4C(C(=O)O)NC3=O)OC(CO)C(O)C2O)CC(C)(NCc2ccc(-c3ccc(Cl)cc3)cc2)C1O (centres unmarked) [Compound 78] |  | 2 | 2 |  |  | 
18 | CC1OC(OC2C(Oc3c4cc5cc3Oc3ccc(cc3Cl)C(O)C3NC(=O)C(NC(=O)C5NC(=O)C(CC(N)=O)NC(=O)C(NC(=O)c5ccccc5F)C(O)c5ccc(c(Cl)c5)O4)c4ccc(O)c(c4)-c4c(O)cc(O)cc4C(C(=O)O)NC3=O)OC(CO)C(O)C2O)CC(C)(NCc2ccc(-c3ccc(Cl)cc3)cc2)C1O (centres unmarked) [Compound 238] |  |  |  |  | 2 | 2
19 | CSCCC(NC(C)=O)C(=O)NC1C(=O)NC(CC(N)=O)C(=O)NC2C(=O)NC3C(=O)NC(C(=O)NC(C(=O)O)c4cc(O)cc(O)c4-c4cc3ccc4O)C(O)c3ccc(c(Cl)c3)Oc3cc2cc(c3OC2OC(CO)C(O)C(O)C2OC2CC(C)(NCc3ccc(-c4ccc(Cl)cc4)cc3)C(O)C(C)O2)Oc2ccc(cc2Cl)C1O (mixture of isomers) [Compound 175] |  | 2 | 2 |  |  | 
20 | CC1OC(OC2C(Oc3c4cc5cc3Oc3ccc(cc3Cl)C(O)C3NC(=O)C(NC(=O)C5NC(=O)C(CC(N)=O)NC(=O)C(NC(=O)c5nccnc5C(N)=O)C(O)c5ccc(c(Cl)c5)O4)c4ccc(O)c(c4)-c4c(O)cc(O)cc4C(C(=O)O)NC3=O)OC(CO)C(O)C2O)CC(C)(NCc2ccc(-c3ccc(Cl)cc3)cc2)C1O (centres unmarked) [Compound 283] |  |  |  |  | 2 | 2
21 | CC1OC(OC2C(Oc3c4cc5cc3Oc3ccc(cc3Cl)C(O)C3NC(=O)C(NC(=O)C5NC(=O)C(CC(N)=O)NC(=O)C(NC(=O)c5ccco5)C(O)c5ccc(c(Cl)c5)O4)c4ccc(O)c(c4)-c4c(O)cc(O)cc4C(C(=O)O)NC3=O)OC(CO)C(O)C2O)CC(C)(NCc2ccc(-c3ccc(Cl)cc3)cc2)C1O (centres unmarked) [Compound 240] |  |  |  |  | 2 | 2
